According to patent US6335465B1, “Sterilized 5-aminolevulinic acid” (Dusa Pharmaceuticals, Inc., priority 1997, dated 2002):

experiment: Color of crystalline ALA hydrochloride in sealed vials after gamma irradiation; format: physicochemical; settings: crystals in sealed 60 ml glass vials after gamma radiation at the target dose (0, 15 or 30 KGys)
Method: ALA hydrochloride salt was obtained from Sochinaz, S.A., Vionnez, Switzerland. 1.65 grams of ALA hydrochloride salt was placed into 60 ml glass vials. 360 vials of crystalline non-irradiated ALA were prepared. of these, 225 vials were sealed under ambient conditions,and were irradiated with gamma radiation as shown in Table 1. Crystalline ALA was first micronized by pulverizing into fine particles a few μm in diameter by a jet mill by Micro-Macinazione, S.A. to determine if further reducing the crystalline size would have any effect on the color of the irradiated ALA. After micronization, 1.65 grams of ALA hydrochloride salt was placed into 60 ml glass vials. A total of 270 vials of crystalline non-irradiated ALA were prepared.

color	Compound
yellow	NCC(=O)CCC(=O)O [Example 9, 5-aminolevulinic acid]
yellow	NCC(=O)CCC(=O)O [Example 10, 5-aminolevulinic acid]
yellow	NCC(=O)CCC(=O)O [Example 6, 5-aminolevulinic acid]
yellow	NCC(=O)CCC(=O)O [Example 7, 5-aminolevulinic acid]
yellow	NCC(=O)CCC(=O)O [Example 8, 5-aminolevulinic acid]
yellow	NCC(=O)CCC(=O)O [Example 5, 5-aminolevulinic acid]
yellow	NCC(=O)CCC(=O)O [Example 4, 5-aminolevulinic acid]

Second part, the compound before the results:

Compound	color
NCC(=O)CCC(=O)O [Example 1, 5-aminolevulinic acid]	yellow
NCC(=O)CCC(=O)O [Comp. Ex. 2, 5-aminolevulinic acid]	off white
NCC(=O)CCC(=O)O [Comp. Ex. 3, 5-aminolevulinic acid]	off white
NCC(=O)CCC(=O)O [Example 3, 5-aminolevulinic acid]	yellow
NCC(=O)CCC(=O)O [Comp. Ex. 1, 5-aminolevulinic acid]	off white
NCC(=O)CCC(=O)O [Example 2, 5-aminolevulinic acid]	yellow
NCC(=O)CCC(=O)O [Comp. Ex. 4, 5-aminolevulinic acid]	off white

experiment: Degradation of crystalline ALA under gamma radiation; format: physicochemical; settings: gamma radiation dose of 25 kilograys or greater
Text: This is significant, in that the United States Food and Drug Administration's (“FDA”) level of gamma irradiation for “overkill” is 25 kilograys. This is a level at which the FDA presumes, without evidence, that virtually all microorganisms have been killed.

Compound	degradation of the ALA at high gamma dose
NCC(=O)CCC(=O)O [crystalline ALA, 5-aminolevulinic acid]	without detectable degradation

experiment: Comparison of irradiated and non-irradiated ALA (spectroscopic, chromatographic, solution pH, solubility profile, calorimetry; FIGS. 2-14); format: physicochemical; settings: solution pH or solubility profile, except for the color
Text: This is explained more fully below with respect to FIGS. 2 to 14.
Although not intending to be bound by any theory, it appears that the color imparted by irradiation is due to F-centers.
The calorimetric measurements of FIGS. 2 and 3 indicate that any major structural differences are present in quantities of less than 1% of the total ALA amount, or that the type of any structural modification is such that the sensitivity of the calorimetric assay to the change is below the capacity of the instrumentation.
Spectral reflectance as shown in FIGS. 4 and 8-10 is very sensitive to spectral differences at or near the surface, while photoacoustic spectroscopy (“PAS”) as shown in FIGS. 5-7 is sensitive to changes both at the surface and the interior of the crystal.
Subsequent analysis of the type described above with respect to FIGS. 2-14, confirmed that there was no discernible difference in structure or pharmacological activity between the irradiated examples and the non-irradiated control comparative examples.

Compound	chemical properties versus non-irradiated ALA
NCC(=O)CCC(=O)O [irradiated crystalline ALA, 5-aminolevulinic acid]	has not been distinguished in any chemical property from non-irradiated ALA

experiment: Storage stability of gamma irradiated ALA in the sealed bottle; format: physicochemical; settings: despite the yellow color of the irradiated crystals
Text: The present invention is based on the finding that sterile ALA can be made and prepared well in advance of its final use, despite the extreme degradation generally found with ALA as noted above.

Compound	degradation after irradiation
NCC(=O)CCC(=O)O [irradiated crystalline ALA, 5-aminolevulinic acid]	had not been degraded
